Values of other authors, collected in patent publication US12599598B2, “Osmotic dosage forms comprising deutetrabenazine and methods of use thereof” (Auspex Pharmaceuticals, Inc., priority 2020, dated 2026).

Conditions: in vivo

half-life of its active metabolites, relative to tetrabenazine: increased half-life
SMILES: [2H]C([2H])([2H])Oc1cc2c(cc1OC([2H])([2H])[2H])[C@H]1CC(=O)[C@H](CC(C)C)CN1CC2 [Deutetrabenazine, (RR,SS)-1,3,4,6,7,11b-hexahydro-9,10-di(methoxy-d3)-3-(2-methylpropyl)-2H-benzo[a]quinolizin-2-one]
